Test results as given in US20080207928A1 (priority 2005, published 2008).
Like-named read-outs stand apart in the source and are kept apart here.

Key:
[1] = biological target: T1, human recombinant CB1 (Homo sapiens, UniProt P21554); assay: CB1R radioligand binding, membranes from HEK293 cells over-expressing human recombinant CB1
T1 construct: purchased Perkin-Elmer; host or cells: HEK293
Protocol: (§1) Flavonoid compounds of general formula (I) above were evaluated for their ability to activate Cannabinoid Receptor 1 (CBLR) and Cannabinoid Receptor 2 (CB2R).
CB1R experiments were performed using membranes from HEK293 cells over-expressing human recombinant CB1, as described by the manufacturer (Perkin-Elmer) and using [3H]CP-55,490 as the radioligand.
(§2) Data of active compounds are expressed in Ki (mM) and are means±SEM of n=3 determinations.
(§3) The values that are stated for each of the compounds is an EC50 value. This is defined as the molar concentration of an agonist, which produces 50% of the maximum possible response for that agonist. The values documented are in micromolar units.

[2] = biological target: T2, human recombinant CB2 (Homo sapiens, UniProt P34972); assay: CB2R radioligand binding, membranes from HEK293 cells over-expressing human recombinant CB2
T2 construct: purchased Perkin-Elmer; host or cells: HEK293
Protocol: as §1
CB2R experiments were performed using membranes from HEK293 cells over-expressing human recombinant CB2, as described by the manufacturer (Perkin-Elmer), and using [3H]CP-55,495 as the radioligand.
as §2, §3

T1 sequence (P21554 whole entry): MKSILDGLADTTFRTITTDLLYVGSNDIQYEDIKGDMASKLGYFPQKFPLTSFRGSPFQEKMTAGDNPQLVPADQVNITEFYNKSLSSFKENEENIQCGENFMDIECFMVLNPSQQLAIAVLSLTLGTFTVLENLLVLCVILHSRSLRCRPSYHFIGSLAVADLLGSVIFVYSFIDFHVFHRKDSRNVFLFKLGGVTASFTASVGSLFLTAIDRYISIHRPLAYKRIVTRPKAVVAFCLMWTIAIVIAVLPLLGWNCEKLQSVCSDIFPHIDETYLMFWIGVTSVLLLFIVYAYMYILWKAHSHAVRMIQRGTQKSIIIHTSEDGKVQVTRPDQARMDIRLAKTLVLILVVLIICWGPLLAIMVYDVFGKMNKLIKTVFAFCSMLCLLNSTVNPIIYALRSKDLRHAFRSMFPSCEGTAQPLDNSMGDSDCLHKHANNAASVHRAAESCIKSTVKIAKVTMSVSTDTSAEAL
T2 sequence (P34972 whole entry): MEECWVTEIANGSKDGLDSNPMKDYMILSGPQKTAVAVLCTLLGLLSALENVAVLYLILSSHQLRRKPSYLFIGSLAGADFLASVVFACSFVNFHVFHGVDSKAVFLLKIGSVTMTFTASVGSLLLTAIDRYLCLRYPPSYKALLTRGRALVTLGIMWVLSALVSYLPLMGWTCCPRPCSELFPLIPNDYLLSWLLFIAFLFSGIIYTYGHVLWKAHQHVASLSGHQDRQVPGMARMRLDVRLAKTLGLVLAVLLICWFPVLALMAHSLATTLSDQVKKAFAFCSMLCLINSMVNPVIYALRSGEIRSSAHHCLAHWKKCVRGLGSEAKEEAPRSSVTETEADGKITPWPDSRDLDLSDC

EC50 ([1]; HEK293 membranes, [3H]CP-55,490 radioligand, means of n=3, read-out: CB1R Activity)	EC50 ([2]; HEK293 membranes, [3H]CP-55,495 radioligand, means of n=3, read-out: CB2R Activity)	SMILES	EC50 [1]	EC50 [2]	activation of Cannabinoid Receptor 1 (statement in words) [1]	activation of Cannabinoid Receptor 2 (statement in words) [2]
		COc1cc(O)c(CC=C(C)C)c2c1C(=O)C[C@@H](c1ccc(O)cc1)O2 [Example 1, 4′, 7-dihydroxy-5-methoxy-8-prenylflavanone]	7.5 µM	> 25 µM		
		CC(C)=CCc1c(O)cc(O)c2c1O[C@H](c1ccc(O)cc1)CC2=O [Example 2, 4′,5,7-trihydroxy-8-prenylflavanone]	4.6 µM	> 25 µM		
> 25 µM	15.5 µM	O=C1C[C@@H](c2ccccc2)Oc2cc(O)cc(O)c21 [Example 3, 5,7-dihydroxyflavanone]				
		COc1cc(O)c2c(c1)O[C@H](c1ccccc1)CC2=O [Example 4, 5-hydroxy-7-methoxyflavanone]	0.8 µM	9.1 µM	can activate both	can activate both
		COc1cc(O)c2c(c1)O[C@H](c1ccc(O)cc1)CC2=O [Example 5, 5,4′-dihydroxy-7-methoxyflavanone]	3.8 µM	> 25 µM		
